Experiment [1] has as its system Mouse preadipocyte strain 3T3-L1. As to the kind of experiment: Inhibition of differentiation as an indication of acetic acid uptake. The conditions noted are these: Mus musculus, 3T3-L1, 0.1 μM test substance, control (0.01% dimethylsulfoxide) = 100%, read-out: Rate of Uptake (%) of [2-14C] acetic acid. It is filed as cell-based. As to the method: As the basal medium, Dulbecco's modified Eagle's (DEM) medium (NISSUI PHARMACEUTICAL CO., LTD) was used. […] All culturing in the present Test Example was carried out in a CO2 incubator at 37° C. and 10% CO2 concentration.
The successively cultured 3T3-L1 cells were inoculated in a Biocoat Collagen I 96-well white/clear plate (Becton Dickinson and Co.) at a concentration of 4,900 cells/well, and were cultured in the basal medium containing added 10% (v/v) inactivated bovine fetal serum (FBS) for 10 days.
The medium was replaced with a differentiation-inducing medium in which inactivated FBS (final concentration: 5%), insulin (Sigma-Aldrich Japan K. K., final concentration: 10 μg/mL), isobutyl methyl xanthine (Aldrich K. K., final concentration: 0.5 mM) and dexamethazone (final concentration: 1 μM) were added so as to be at the final concentrations indicated in the parentheses. The cells were divided in the following 2 groups and were cultured for 4 days; 1) in the presence of 0.01% (v/v) dimethylsulfoxide, and 2) in the presence of 0.01% (v/v) dimethylsulfoxide in which was dissolved 1 mM of the test substance (final concentration of 0.1 μM). Then, the medium was further replaced with a maintenance medium in which inactivated […] and insulin were added to the base medium so as to be at final concentrations of 5% and 100 ng/mL, respectively, and the cells were cultured for 2 days.
The inhibitory activity of the test compound against cell differentiation was assayed by using uptake of [2-^14C] acetic acid into the cultured cells as an indicator. […] Then the cells were further incubated with the newly prepared medium for 1 hr. After washing the well with PBS (−), the cells were dried. To these wells, 100 μL/well of a scintillation cocktail (Hewlett-Packard Co., MICROSCINT-20 PACKARD) were added and their radioactivities were determined with a Packard TopCont microplate Scintillation Counter (Hewlett-Packard Co., PACKARD) and the uptake level of [2-^14C] acetic acid into the cultured cell was calculated.
On the basis of the calculated uptake level of [2-^14C] acetic acid into the cultured cells, the relative uptake level of [2-^14C] acetic acid in the group treated with the test compound was calculated against the uptake level of [2-^14C] acetic acid in the presence of 0.01% (v/v) dimethylsulfoxide solution described in 1) (100%).
Value=Uptake Level (cpm) of [2-^14C] Acetic Acid in the Presence of the Test Substance
Control=Uptake Level (cpm) of [2-^14C] Acetic Acid in the Control Group (0.01% dimethylsulfoxide)
Uptake Rate (%) of [2-^14C] Acetic Acid=100×[Value]/[Control]

A further experiment concerns leptin production. As to the kind of experiment: Enhancing activity for leptin production in adipocytes (ELISA). It is filed as cell-based, rat. The conditions noted are these: Rattus norvegicus, Adipocyte, 24 h, leptin concentration as % of control group, read-out: Facilitating activity to produce leptin; for activity at 0.1 µM: 100 nm. The protocol: Hanks solution was used for collection of adipose tissue. The Hanks solution was prepared by filtration of a mixed solution (pH: 7.5) of 120 mM NaCl, 4.8 mM KCl, 0.74 mM MgSO4, 0.30 mM Na2HPO4, 0.40 mM KH2PO4, 20 mM HEPES, 0.05% (w/v) glucose, 2% (w/v) BSA (Sigma-Aldrich Japan K. K., Cat. No. A7888), 0.95 mM CaCl2, 4.17 mM NaHCO3 and 1% (v/v) penicillin-streptomycin liquid (GIBCO BRL, Cat. No. 15140-122). The adipocytes were cultured in Dulbecco's modified Eagle's medium (GIBCO BRL, Cat. No. 11995-040) mixed with DMEM/F-12 (GIBCO BRL, Cat. No. 11320-033) at a ratio of 1:1, and added 0.2% (v/v) Hanks solution, 0.2 μg/L sodium selenite (GIBCO BRL, Cat. No. 13012-018), 0.002% (v/v) ethanolamine, 25 mM HEPES and 1% (v/v) penicillin-streptomycin liquid (GIBCO BRL, Cat. No. 15140-122). As many as possible of the other reagents used were special grade. In this experiment, the cells were cultured in a CO2 incubator (37° C., 95% humidity, 5% CO2).
Male Wistar Imamichi rats of 6 weeks old were sacrificed by bleeding following decapitation, and adipose tissue was removed from the epididymis and sectioned after the vessels were removed in warmed Hanks solution at 37° C. and were weighed. One (1) mL of Hanks solution containing 10 mg collagenase (Wako Pure Chemical Industries, Ltd., 034-10533) was added to the adipose tissue prepared. The solution was transferred into a tube having a volume of 50 mL, and the cells were evenly dispersed by incubation under gentle shaking at 37° C., 90 rpm, for 50 min. Then 20 mL of Hanks solution were added and filtrated through Nylon-mesh with a mesh diameter of 200 μm for removal of undigested tissue pieces. The floating adipocytes were separated from sediments and substances located in the lower layer by centrifugation at 1,000 rpm for 1 min at room temperature. The sediment and 22 mL of the low layer were pulled out with a probe, and the floating adipocytes were recovered. This procedure was repeated twice with Hanks solution and for 4 times with the culture medium. After these procedures the adipocytes were suspended in the culture medium at a volume of 60 mL per 1 g of the adipose tissue weighed previously. 100 μL of the suspended solution were plated in each well of a 96-well microplate (ASAHI TECHNO GLASS Corp.) In the group treated with the test compound, 1 μL/well of DMSO solution containing the dissolved the test compound at concentrations of 200 μM, 20 μM, 2 μM and 0.2 μM (final concentrations of the test compound: 1 μM, 100 nM, 10 nM and 1 nM, respectively) was plated in each of the well. In the control group, 1 μL/well of DMSO (final concentration: 0.1% (v/v)) was plated in each well. The plate was placed stationary in a CO2 incubator for 1 hr or longer, and the contents in the solution were equilibrated at 37° C. After they were equilibrated, the solution in each well was stirred with a magnetic stirrer in a water bath and the suspended solution maintained at 37° C. was plated into each well of the plate at 100 μL/well. After incubation of the cells for 24 hr, the suspended solution of cells was filtrated through a filter for the microplate, MultiScreen (MILLOPORE, MDV-N65). The concentration of leptin in the filtrated solution was determined with ELISA methods by using a Rat Leptin Determination Kit-IBL (Immuno-Biological Laboratories Co., Ltd., Cat. No. 17195). The facilitating activity of the compound to produce leptin was calculated from the following equation based on the concentration of leptin determined.
Facilitating Activity of the Compound to Produce Leptin (%)=(A/B)×100
A: Concentration of Leptin in the Treated Group with the Test Compound.
B: Concentration of Leptin in the Control Group.
In general terms: In an ELISA, binding on a coated surface is turned into a signal by an enzyme label.

Another experiment concerns Rat white adipocytes. Description: Inhibition of the differentiation of adipocytes (Oil Red O). The conditions noted are these: 100 nM test compound, 5 days, Oil Red O ABS550, control = 100%, blank = 0%, Table 3; for activity at 0.1 µM: Rattus norvegicus, Adipocyte, 120 h, read-out: Rate of Differentiation (%). It is filed as cell-based. As to the method:
Rat white adipocytes contained in the white adipocyte culture kit purchased from HOKUDO were used. As the medium for proliferation and for differentiation-inducing, the medium contained in the white adipocyte culture kit purchased from HOKUDO was used. The cells in the present experiment were cultured in a CO2 incubator (37° C., 95% R.H., 5% CO2).
Immediately after arrival of the purchased cells, all medium for transportation was discarded and replaced with 5 ml of proliferation medium (/25 cm^2-flask) and the cells were cultured for one day. Then, a cell suspension was prepared with proliferation medium so as to be 83,000 cells/mL, and the cell suspension was plated into a type I 96-well collagen-coated microplate (SUMITOMO BAKELITE CO., ltd.) so as to be 5,000 cells/well (60 μL/well).
On the next day, all the proliferation medium was discarded and replaced with 147 μL/well of differentiation-inducing medium. Further, 1) in the group treated with the test compound, 3 μL/well of the solution, in which a test compound (100 μM) was dissolved in DMSO solution and diluted with differentiation-inducing medium by 20 times (final concentration of the test compound: 100 nM, final concentration of DMSO solution: 0.1% (v/v)), were added to the well where the cells were plated. 2) In the control group, 3 μL/well of DMSO solution that was diluted with differentiation-inducing medium by 20 times (final concentration of DMSO: 0.1% (v/v)) were added to the well where the cells were plated. Further, 3) in the blank group, 3 μL/well of DMSO solution that was diluted with differentiation-inducing medium by 20 times (final concentration: 0.1% (v/v)), was added to the blank well.
After culturing for 5 days, all differentiation-inducing medium was discarded and replaced with 60 μL of 10% (v/v) formaldehyde solution (for fixation) in each well and the cells were kept stationary for 20 min at room temperature. After this, the fixative solution was discarded and replaced with 60 μL of 0.2% (v/v) Triton X (Sigma-Aldrich Japan K. K.) solution in each well and kept stationary for 5 min at room temperature. Then all Triton X solution was discarded and replaced with 60 μL of 60% (v/v) isopropanol solution containing dissolved Oil Red O (Sigma-Aldrich Japan K. K.) so as to be 0.3%, which was adipose tissue staining solution, and the well was left stationary for 10 min at room temperature. After the adipose tissue staining solution was discarded, the well was washed twice with 60 JIL of 60% isopropanol solution. Then, 100 μL of the DMSO solution were added to each well and stirred for 5 min at room temperature, The absorbance was measured at 550 nm (ABS550) with a multi-plate reader (LabSystems), and the stained amount with Oil Red O was determined. The measured level at ABS550 in the control group was defined as 100%, while the level at ABS550 in the blank group was defined as 0%. The differentiation rate (%) of the adipocytes treated with the test compound was calculated.

Counter-ions that a name gives are not always drawn.

As to `Cc1cccc(C(C)C)c1NC(=O)c1cc([N+](=O)[O-])ccc1Cl` [Example 19, N-(2-Isopropyl-6-methylphenyl)-(2-chloro-5-nitrophenyl)carboxamide], the activity at 0.1 µM in experiment [1] is 64.8%.

In the case of `O=C(O)c1ccc(NC(=O)c2cc([N+](=O)[O-])ccc2Cl)cc1` [Example 27, 4-[(2-Chloro-5-nitrophenyl)carbonylamino]benzoic Acid], the activity at 0.1 µM in experiment [1] was 66%.

`CCOC(=O)c1c[nH]nc1NC(=O)c1cc([N+](=O)[O-])ccc1Cl` [Example 71, N-(4-Ethoxycarbonylpyrazol-3-yl)-(2-chloro-5-nitrophenyl)carboxamide]: in experiment [1], the activity at 0.1 µM stood at 65.8%.

`CC(=O)Oc1c(C)c(C)c2c(c1C)C(=O)CC(C)(COc1ccc(NC(=O)c3cc([N+](=O)[O-])ccc3Cl)cc1)O2` (stereo not shown) [Example 91, N-[4-(6-Acetoxy-2,5,7,8-tetramethyl-4-oxochroman-2-ylmethoxy)phenyl]-(2-chloro-5-nitrophenyl)carboxamide]: in the experiment with leptin production, the activity at 1 µM amounted to 114% and the activity at 0.1 µM is 110%. Also, the activity at 0.1 µM in experiment [1] came out at 85.8%.

On to `CCCCCCCCCCCCCCc1sc(NC(=O)c2cc([N+](=O)[O-])ccc2Cl)nc1-c1ccccc1` [Example 109, N-(4-Phenyl-5-tetradecylthiazol-2-yl)-(2-chloro-5-nitrophenyl)carboxamide], for which, in the experiment on leptin production, the activity at 1 µM was 112%. For the same molecule, in experiment [1], the activity at 0.1 µM was 64.6%.

As for `Cc1ccc(NS(=O)(=O)c2ccc(NC(=O)c3cc([N+](=O)[O-])ccc3Cl)cc2)cc1` [Example 144, N-[4-(4-Tolylaminosulfonyl)phenyl]-(2-chloro-5-nitrophenyl)carboxamide], in experiment [1], the activity at 0.1 µM stood at 82.2%.

`Nc1ccc(NC(=O)c2cc([N+](=O)[O-])ccc2Cl)cc1` [Example 180, N-(4-Aminophenyl)-(2-chloro-5-nitrophenyl)carboxamide]: the “Rate of Differentiation (%)” value in the experiment with Rat white adipocytes was found to be 59.1%.

As to `CCCCCCCCN(CCCCCCCC)c1ccc(-c2ccc(NC(=O)c3cc([N+](=O)[O-])ccc3Cl)cc2)cc1` [Example 185, N-[4-[4-(N,N-Dioctylamino)phenyl]phenyl]-(2-chloro-5-nitrophenyl)carboxamide Hydrochloride], in the experiment on leptin production, the activity at 1 µM came out at 123% and the activity at 0.1 µM turned out to be 132%. In the experiment on leptin production (10 nm), the activity at 0.01 µM came out at 122%.

On to `CCCCN(C)c1ccc(-c2ccc(NC(=O)c3cc([N+](=O)[O-])ccc3Cl)cc2)cc1` [Example 210, N-[4-[4-(N-Butyl-N-methylamino)phenyl]phenyl]-(2-chloro-5-nitrophenyl)carboxamide], for which the activity at 0.1 µM in the experiment with Rat white adipocytes came to 47.6%.

For `CCCN(C)c1ccc(-c2ccc(NC(=O)c3cc([N+](=O)[O-])ccc3Cl)cc2)cc1` [Example 213, N-[4-[4-(N-Methyl-N-propylamino)phenyl]phenyl]-(2-chloro-5-nitrophenyl)carboxamide], in the experiment on Rat white adipocytes, the activity at 0.1 µM came to 47.4%.

`CCCCCN(C)c1ccc(-c2ccc(NC(=O)c3cc([N+](=O)[O-])ccc3Cl)cc2)cc1` [Example 215, N-[4-[4-(N-Methyl-N-pentylamino)phenyl]phenyl]-(2-chloro-5-nitrophenyl)carboxamide]: in the experiment with Rat white adipocytes, the activity at 0.1 µM worked out at 45.2%.

The record behind these values is US20030134859A1 (SANKYO COMPANY, LIMITED, priority 2000, published 2003).
